Where a SMILES comes first, the peptide text is derived from it. [ ]: non-standard residue; d: D form.
What was measured:
[1] = tested on: mecA gene expression; assay: mecA gene expression by RT-PCR; type: cell-based, Staphylococcus pseudintermedius
Method: The reaction was carried out in a DNA thermal cycler (MyCycler, Bio-Rad, Hercules, CA, USA). The PCR products were analysed by electrophoresis on 1.8% agarose gel in TBE and analysed on a Gel Doc EZ System (Bio-Rad, Hercules, CA, USA). RNA extraction was performed by using GenUp Total RNA kit (BiotechRabbit, Berlin, Germany) according to the manufacturer’s instructions. Five hundred nanograms of total cellular RNA were reverse-transcribed (RevertUP II Reverse Transcriptase, BiotechRabbit, Berlin, Germany) into cDNA using random hexamer primers (Random hexamer, Roche Diagnostics, Mannheim, Germany) at 48 °C for 60 min according to the manufacturer’s instructions. RT-PCR was carried out using 2 μL of cDNA, as reported above. Quantification data were normalized to the reference gene for 16S rRNA gene and analyzed by Image Lab software 5.2.1 (Bio-Rad, Hercules, CA, USA).

[2] = tested on: M. pachydermatis
Method: MIC of all compounds was determined in Sabouraud Dextrose broth with 1% tween 80 (SB) medium, for M. pachydermatis, and Mueller–Hinton broth (MH), for S. pseudintermedius, by the broth microdilution assay (BMD) in 96-well microtiter plates, as previously reported. Specifically, SB containing 1% Tween 80 was used instead of RPMI 1640 medium. All compounds were dissolved in ethanol and ketoconazole in dimethyl sulfoxide (DMSO). The solutions were serially diluted in SB and MH two-fold from 0.19 to 50 μM. M. pachydermatis suspension was prepared from 3-day-old colonies grown on Sabouraud agar at 30 °C. The final concentration of the yeast inoculum suspensions was equivalent to 1–3 × 10^3 CFU/mL. Bacterial suspensions were diluted to yield an optical density (OD) around 0.5 at 595 nm and further diluted to a final concentration of 1 × 10^6 CFU/mL. The compounds were added to the microbial suspension in each well yielding a final cell concentration of 5 × 10^5 CFU/mL. Positive controls included oxacillin 5 μM (2 μg/mL) and vancomycin 1.4 μM (2 μg/mL) for S. pseudintermedius or ketoconazole 0.2 μM (0.125 μg/mL) for M. pachydermatis. Negative control wells were set to contain bacteria in MH or yeasts in SB plus the amount of ethanol used to dilute each compound. Medium turbidity was measured by a microtiter plate reader (Tecan, Milan, Italy) at 595 nm after 24 h for S. pseudintermedius and 48 h for M. pachydermatis. Absorbance was proportional to microbial growth. The MIC was defined as the lowest concentration of drug that caused a prominent decrease (≥90% inhibition) in visible growth relative to that of the growth control.

[3] = tested on: circulating blood cells; details: cited from earlier work
[4] = tested on: MRSP biofilm formation; assay: Biofilm formation, crystal violet assay, MRSP; type: cell-based, Staphylococcus pseudintermedius; details: sub-MIC 0.095 to 0.78 μM, 24 h
Method: (§1) Anti-biofilm activity of peptide 8 was examined by the crystal violet assay previously described with minor modifications. Microtiter plates were inoculated with bacteria at a final density of 10^6 CFU/mL and treated with peptide 8 ranging from 0.095 to 0.78 μM. Control cells were grown in the absence of peptide 8. After 24 h incubation at 37 °C, the supernatant was gently removed, and the wells were rinsed twice with PBS. The amount of biofilm formed in the wells was measured by crystal violet staining and the absorbance of the solution was measured at 595 nm.

[5] = ref unpublished results, cited from earlier work
[6] = tested on: MRSP mature biofilm; assay: Mature biofilm metabolic activity, XTT assay, MRSP; type: cell-based, Staphylococcus pseudintermedius; details: 24 h
Method: (§2) The metabolic activity of MSSP and MRSP mature biofilms was quantified by the XTT [2,3-bis(2-methyloxy-4-nitro-5-sulfophenyl)-2H-tetrazolium-5-carboxanilide] (Roche Diagnostics, Germany) reduction assay. The assay was conducted as previously described with some modifications. XTT (150 µL) was added to biofilms in each well and the plates were incubated for 40 min at 37 °C in the dark. The reduction of the tetrazolium salt by cellular dehydrogenase into orange formazan dye was photometrically measured at 490 nm. The medium was set as negative control. Viability values for each well were compared to controls.

[7] = tested on: MSSP mature biofilm; assay: Mature biofilm metabolic activity, XTT assay, MSSP; type: cell-based, Staphylococcus pseudintermedius; details: 24 h
Method: as §2

[8] = tested on: MRSP; assay: Checkerboard synergy of peptide 8 and oxacillin; type: cell-based, Staphylococcus pseudintermedius; details: MRSP
Method: The interaction between peptide 8 and oxacillin against MRSP was evaluated by the checkerboard method. Briefly, twofold serial dilutions of oxacillin distributed in horizontal rows of 96-well microtiter plate were cross-diluted vertically by twofold serial dilutions of peptide 8 to at least double the MIC. The peptide 8 tested concentration ranging from 0.19 to 12.5 μM and oxacillin from 1.25 to 25 μM (0.5 to 10 μg/mL). Microtiter plates were inoculated with bacteria at an approximate concentration of 10^5 CFU/mL and incubated at 37 °C for 24 h. […] To evaluate the effect of the combination treatment, the fractional inhibitory concentration (FIC) index for each combination was calculated as follows: FIC index = FIC of peptide 8 + FIC of oxacillin, where FIC of peptide 8 (or oxacillin) was defined as the ratio of MIC of peptide 8 (or oxacillin) in combination and MIC of peptide 8 (or oxacillin) alone. The FIC index values were interpreted as follows: ≤0.5, synergistic; >0.5 to ≤1.0, additive; >1.0 to ≤2.0, indifferent; and >2.0, antagonistic effects.

[9] = tested on: MSSP biofilm formation; assay: Biofilm formation, crystal violet assay, MSSP; type: cell-based, Staphylococcus pseudintermedius; details: sub-MIC 0.095 to 0.78 μM, 24 h
Method: as §1

CC[C@H](C)[C@H](NC(=O)[C@H](CCCNC(=N)N)NC(=O)[C@@H](CCCCN)NC(=O)[C@@H](CC(C)C)NC(=O)[C@H](Cc1ccccc1)NC(=O)[C@H](CCCCN)NC(=O)[C@H](CO)NC(=O)[C@H](Cc1ccccc1)NC(=O)[C@H](Cc1c[nH]c2ccccc12)NC(=O)[C@@H]1CCCN1C(=O)[C@@H](NC(=O)[C@@H](N)Cc1ccccc1)C(C)C)C(=O)N[C@@H](CC(C)C)C(N)=O [Peptide 8] (H-FVPWFSKF[dL][dK]RIL-NH2; N-terminus assumed)
Regulation of mecA gene expression [1]: did not regulate mecA gene expression | MMC/MIC Ratio ([2]; M. pachydermatis): 1 | MMC Values (minimum mycocidal concentration) ([2]; ≥3 log10 reduction in colony count from starting inoculum, agar 72 h at 30 °C): 6.25 µM | Hemolytic activity [3]: did not show hemolytic activity | Effect on biofilm formation [4]: ineffective | Aggregation state and conformation in aqueous solution ([5]; aqueous solution): monomeric with a random coil conformation | Aggregation in membrane mimetic environments ([5]; membrane mimetic environments): significant ability to aggregate | Reduction of biofilm viability ([6]; 6.25 μM): 38% | Reduction of biofilm viability ([6]; 12.5 μM): 52% | Effect on biofilm viability at 25 μM ([6]; 25 μM): reduced effect | Reduction of biofilm viability ([7]; 12.5 μM): 38% | Effect on biofilm viability at 25 μM ([7]; 25 μM): reduced effect | FICindex ([8]; peptide 8 + oxacillin, checkerboard, 37 °C 24 h, ≤0.5 synergistic): 0.37 | Concentration of peptide 8 in the most synergistic combination ([8]; with 3.1 μM oxacillin, 1/4 MIC): 1.56 µM | Effect on biofilm formation [9]: ineffective

From paper PMC7560154, “Novel Antimicrobial Peptide from Temporin L in The Treatment of Staphylococcus pseudintermedius and Malassezia pachydermatis in Polymicrobial Inter-Kingdom Infection” (Antibiotics, 2020)
